Tests used:
[1] = biological target: T1, TRKC(G623R) (Homo sapiens, UniProt Q16288, G623R); assay: HTRF KinEASE-TK kinase activity inhibition assay, TRKC(G623R); format: biochemical; settings: ATP 100 µM
T1 construct: purchased SignalChem N18-12CH-10
Description: (§1) The following method was used to determine the inhibition degrees of the compounds of the present invention on the activity of recombinant human NTRK family kinase in vitro. In this method, HTRF®KinEASE-TK tyrosine kinase kit (article number: 62TK0PEB) of Cisbio company was used, and the principle of the kit was based on time-resolved fluorescence resonance energy transfer (TF-FRET), and the inhibition of the compounds on the activity of the NTRK kinase was reflected by determining a phosphorylation degree of a biotinylated polypeptide substrate mediated by NTRK kinase. For detailed experimental operation, please refer to the kit instruction. Recombinant human wild-type NTRK proteins were purchased from Carna bioscience (the article numbers were TRKA #08-186, TRKB #08-187 and TRKC #08-197 respectively), and recombinant human mutant NTRK proteins were purchased from SignalChem (the article numbers were TRKA G595R #N16-12BG-10, TRKA G667C # N16-12CG-10, and TRKC G623R # N18-12CH-10 respectively).
The experimental methods were operated according to the steps in the kit instruction, and were briefly described as follows: a test compound was first dissolved in DMSO to prepare a storage solution, and then diluted in gradient with a buffer provided in the kit. A final concentration of the test compound in the reaction system ranged from 1,000 nM to 0.004 nM. An ATP Km value concentration of each NTRK protein was determined by using an ATP solution diluted in gradient (Sangon Biotech (Shanghai) Co., Ltd., A600311). According to the Km value obtained, the ATP concentrations in the reaction system were set as 100 µM for TRKA, 10 µM for TRKB, 50 µM for TRKC, 7 µM for TRKA(G595R), 1 µM for TRKA(G667C) and 100 µM for TRKC(G623R). The reaction was carried out in a 384-well microplate. Firstly, the compound and a certain amount of corresponding NTRK protein were added to the wells and incubated for 5 minutes to 10 minutes at room temperature. Then, the ATP solution and the biotinylated polypeptide substrate solution were added to the reaction solution and incubated with shaking at room temperature for 60 minutes. […] After incubation, fluorescence intensity values of each well at an excitation wavelength of 304 nm, and emission wavelengths of 620 nm and 665 nM were determined in a TF-FRET mode on a microplate reader. Compared with the fluorescence intensity ratio of a control group (0.1% DMSO), the percentage inhibition rates of the compound at each concentration were calculated, and the IC50 value of the compound was obtained by performing nonlinear regression analysis for logarithmic value of the compound concentration - inhibition rate by GraphPad Prism 5 software, which can be seen in Table 1. […]

[2] = biological target: T2, TRKA(G667C) (Homo sapiens, UniProt P04629, G667C); assay: HTRF KinEASE-TK kinase activity inhibition assay, TRKA(G667C); format: biochemical; settings: ATP 1 µM
T2 construct: purchased SignalChem N16-12CG-10
Description: as §1
The experimental methods were operated according to the steps in the kit instruction, and were briefly described as follows: a test compound was first dissolved in DMSO to prepare a storage solution, and then diluted in gradient with a buffer provided in the kit. A final concentration of the test compound in the reaction system ranged from 1,000 nM to 0.004 nM. An ATP Km value concentration of each NTRK protein was determined by using an ATP solution diluted in gradient (Sangon Biotech (Shanghai) Co., Ltd., A600311). According to the Km value obtained, the ATP concentrations in the reaction system were set as 100 µM for TRKA, 10 µM for TRKB, 50 µM for TRKC, 7 µM for TRKA(G595R), 1 µM for TRKA(G667C) and 100 µM for TRKC(G623R). The reaction was carried out in a 384-well microplate. Firstly, the compound and a certain amount of corresponding NTRK protein were added to the wells and incubated for 5 minutes to 10 minutes at room temperature. Then, the ATP solution and the biotinylated polypeptide substrate solution were added to the reaction solution and incubated with shaking at room temperature for 60 minutes. Then, an anti-phosphorylated tyrosine antibody coupled with a europium compound and streptavidin coupled with modified allophycocyanin XL665 were added to the reaction, and continuously incubated with shaking at room temperature for 1 hour. After incubation, fluorescence intensity values of each well at an excitation wavelength of 304 nm, and emission wavelengths of 620 nm and 665 nM were determined in a TF-FRET mode on a microplate reader. Compared with the fluorescence intensity ratio of a control group (0.1% DMSO), the percentage inhibition rates of the compound at each concentration were calculated, and the IC50 value of the compound was obtained by performing nonlinear regression analysis for logarithmic value of the compound concentration - inhibition rate by GraphPad Prism 5 software, which can be seen in Table 1. Table 1 IC50 data of the compounds of the present invention on TRK enzyme activity inhibition

T2 sequence (P04629 33-796 G667C): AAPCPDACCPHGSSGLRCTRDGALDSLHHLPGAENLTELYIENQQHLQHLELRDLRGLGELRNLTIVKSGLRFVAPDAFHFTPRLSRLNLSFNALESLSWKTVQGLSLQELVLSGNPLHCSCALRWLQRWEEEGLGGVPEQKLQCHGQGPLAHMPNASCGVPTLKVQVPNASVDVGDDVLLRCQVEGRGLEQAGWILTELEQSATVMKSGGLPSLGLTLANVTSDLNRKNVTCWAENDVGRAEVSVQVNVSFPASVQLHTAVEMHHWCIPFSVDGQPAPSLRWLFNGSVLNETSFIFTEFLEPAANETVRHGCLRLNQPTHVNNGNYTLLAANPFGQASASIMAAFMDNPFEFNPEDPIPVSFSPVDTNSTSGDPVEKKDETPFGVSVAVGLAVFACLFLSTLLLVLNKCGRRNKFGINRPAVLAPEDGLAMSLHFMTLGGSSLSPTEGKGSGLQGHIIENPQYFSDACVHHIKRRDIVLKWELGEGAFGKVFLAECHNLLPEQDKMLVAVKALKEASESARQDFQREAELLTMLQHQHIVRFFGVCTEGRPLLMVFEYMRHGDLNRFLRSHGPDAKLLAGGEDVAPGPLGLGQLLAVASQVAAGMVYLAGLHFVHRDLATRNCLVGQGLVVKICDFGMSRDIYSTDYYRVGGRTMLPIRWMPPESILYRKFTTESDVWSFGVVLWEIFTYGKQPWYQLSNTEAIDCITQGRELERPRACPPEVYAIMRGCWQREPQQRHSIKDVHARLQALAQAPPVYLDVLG
T1 sequence (Q16288 32-839 G623R): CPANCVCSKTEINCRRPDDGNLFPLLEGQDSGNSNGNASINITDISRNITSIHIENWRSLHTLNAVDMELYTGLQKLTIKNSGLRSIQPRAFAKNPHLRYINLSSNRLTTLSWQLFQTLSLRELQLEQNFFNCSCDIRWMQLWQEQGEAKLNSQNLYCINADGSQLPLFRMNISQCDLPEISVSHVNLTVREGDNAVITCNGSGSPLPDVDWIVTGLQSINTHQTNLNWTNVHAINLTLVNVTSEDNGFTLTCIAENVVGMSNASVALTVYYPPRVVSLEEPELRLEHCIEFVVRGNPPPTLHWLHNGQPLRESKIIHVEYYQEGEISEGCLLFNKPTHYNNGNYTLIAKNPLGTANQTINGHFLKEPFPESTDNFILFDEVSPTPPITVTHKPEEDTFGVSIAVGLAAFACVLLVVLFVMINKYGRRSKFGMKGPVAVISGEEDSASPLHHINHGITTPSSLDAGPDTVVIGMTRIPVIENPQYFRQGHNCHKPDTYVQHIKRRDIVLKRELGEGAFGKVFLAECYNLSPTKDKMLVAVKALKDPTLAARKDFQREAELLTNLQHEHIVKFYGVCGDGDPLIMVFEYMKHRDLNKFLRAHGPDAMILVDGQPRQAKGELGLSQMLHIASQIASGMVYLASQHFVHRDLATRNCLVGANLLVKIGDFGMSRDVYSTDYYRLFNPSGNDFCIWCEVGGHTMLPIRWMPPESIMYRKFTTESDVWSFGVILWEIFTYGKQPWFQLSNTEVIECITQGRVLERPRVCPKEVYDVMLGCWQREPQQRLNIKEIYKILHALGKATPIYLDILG

Row | IC50 [1] [nM] | IC50 [2] [nM] | Structure (SMILES)
1 | 13.5 | – | C[C@H]1Nc2ccn3ncc(c3n2)C(=O)NC[C@@]2(C)Cc3cc(F)cc1c3O2 [Example 8, (3R,11R)-6-fluoro-3,11-dimethyl-10-oxa-2,13,17,1 8,21-pentaazapentacyclo[13.5.2.1^8,11.0^4,9.0^18,22]tric osa-1(21),4,6,8,15(22),16,19-heptaen-14-one]
2 | – | 9.5 | C[C@H]1Nc2ccn3nc(N)c(c3n2)C(=O)NC[C@@]2(C)Cc3cc(F)cc1c3O2 [Example 25, (3R,11R)-16-amino-6-fluoro-3,11-dimethyl-10-oxa-2,13,17,18,21-pentaazapentacyclo[13.5.2.1^8,11.0^4,9. 0^18,22]tricosa-1(21),4,6,8,15(22),16,19-heptaen-14-one]

Source: patent EP3974434B1, “MACROLIDE DERIVATIVES, PREPARATION METHOD AND APPLICATION THEREOF” (Zhejiang Hisun Pharmaceutical Co., Ltd., priority 2019, dated 2020)
